The compounds below were run against T1, human α7 nAChR (Homo sapiens, UniProt P36544) (assay: Evaluation of PAM activity with human α7 nACh receptor stably expressing cells (aequorin luminescence, FDSS7000)). Details: 1 μM test compound (values marked *, footnote of Table 25); ACh at EC20; ratio of RLU (Max-Min) to control wells; read-out: α7PAM (%) @1 μM.
T1 construct: expressed in transfected cells
T1 sequence (P36544 23-502): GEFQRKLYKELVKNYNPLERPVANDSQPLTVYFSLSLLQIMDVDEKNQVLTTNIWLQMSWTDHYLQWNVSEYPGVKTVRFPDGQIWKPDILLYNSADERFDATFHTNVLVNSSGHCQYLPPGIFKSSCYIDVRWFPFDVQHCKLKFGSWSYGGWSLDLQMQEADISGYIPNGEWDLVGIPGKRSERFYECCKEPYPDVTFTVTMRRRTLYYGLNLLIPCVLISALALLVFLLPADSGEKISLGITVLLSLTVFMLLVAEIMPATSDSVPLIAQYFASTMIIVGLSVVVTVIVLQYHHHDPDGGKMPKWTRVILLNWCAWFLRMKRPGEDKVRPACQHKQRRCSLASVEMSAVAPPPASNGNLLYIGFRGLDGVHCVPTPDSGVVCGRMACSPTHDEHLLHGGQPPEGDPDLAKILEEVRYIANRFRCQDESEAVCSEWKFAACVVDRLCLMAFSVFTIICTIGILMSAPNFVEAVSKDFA
Assay type: cell-based
Method in brief: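 Human α7 nAChR stable cells loaded with 4 μM Viviren (final) for 4 h at room temperature in the dark. Compounds in Hanks/20 mM HEPES/0.2% BSA were added and luminescence recorded on FDSS7000. PAM activity = RLU (Max-Min) ratio of test wells to control wells.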
For `CC(C)(F)C(=O)N[C@H]1CC[C@@H](n2cnc(-c3ccc(F)c(OC(F)(F)F)c3)c2)CC1` [Example 295], the activity at 1 µM was 444%.
`O=C(NC1CCOCC1)[C@H]1CC[C@@H](n2cnc(-c3ccccc3F)c2)CC1` [Example 356] was tested, and the activity at 1 µM was 119%.
Work on `COc1cc(-c2ncn([C@H]3CC[C@@H](NC(=O)C4CCC4)CC3)c2Cl)c(Cl)cc1F` [Example 192] yielded an activity at 1 µM of 274%.
`O=C(N[C@H]1CC[C@@H](n2cnc(-c3ccc(C(F)(F)F)cc3)c2)CC1)C1CCC(F)(F)CC1` [Example 162] showed an activity at 1 µM of 323%.
Work on `N#Cc1c(-c2cc(F)ccc2F)ncn1[C@@H]1C[C@H]2CC[C@@H](C1)N2C(=O)C1CCC(F)(F)CC1` [Example 464] yielded an activity at 1 µM of 124%.
Work on `O=C(NC1CCC2(CC1)CC2)N1CCC(n2cnc(-c3cccc(F)c3)c2)CC1` [Example 46] yielded an activity at 1 µM of 104%.
`O=C(NCC1CCCCC1)N1CCC(n2cnc(-c3c(F)cccc3F)c2)CC1` [Example 11] was tested, and the activity at 1 µM was 116%.
In the case of `COc1cc(-c2cn([C@H]3CC[C@@H](NC(=O)C(C)(C)F)CC3)cn2)ccc1Cl` [Example 309], the activity at 1 µM is reported as 181%.
In the case of `CC(C)(C)C(=O)N[C@H]1CC[C@@H](n2cnc(-c3ccc(C(F)(F)F)cc3)c2)CC1` [Example 161], the activity at 1 µM is reported as 233%.
`CC(C)(F)C(=O)N[C@H]1CC[C@@H](n2cnc(-c3cc(OC(F)(F)F)ccc3F)c2Cl)CC1` [Example 328] gave an activity at 1 µM of 859%.
Compound `N#Cc1c(-c2cc(F)ccc2F)ncn1[C@@H]1C[C@H]2CC[C@@H](C1)N2C(=O)NC1CCC(F)(F)CC1` [Example 423] has an activity at 1 µM of 390%.

Same assay, conditions: 10 μM test compound; ACh at EC20; ratio of RLU (Max-Min) to control wells; read-out: α7PAM (%) @10 μM
`O=C(C1CCC(F)(F)CC1)N1[C@@H]2CC[C@H]1C[C@@H](n1cnc(-c3ccc(F)cc3)c1Cl)C2` [Example 431] showed an activity at 10 µM of 836%.
Compound `COc1cccc(-c2cn(C3CCN(C(=O)NC4CCCCC4)CC3)cn2)c1` [Example 71] has an activity at 10 µM of 422%.
`O=C(C1CCC(F)(F)CC1)N1[C@@H]2CC[C@H]1C[C@H](n1cnc(-c3ccc(F)cc3F)c1)C2` [Example 447] showed an activity at 10 µM of 268%.
For `O=C(C1CCOCC1)N1[C@@H]2CC[C@H]1C[C@H](n1cnc(-c3cc(F)ccc3F)c1Cl)C2` [Example 460], the activity at 10 µM was 390%.
Work on `O=C(N[C@H]1CC[C@@H](n2cnc(-c3ccccc3)c2Cl)CC1)C1CC(F)(F)C1` [Example 188] yielded an activity at 10 µM of 581%.
For `CC(C)(F)C(=O)N[C@H]1CC[C@@H](n2cnc(-c3cccc(F)c3)c2C#N)CC1` [Example 338], the activity at 10 µM was 192%.
`CC(C)(F)C(=O)N[C@H]1CC[C@@H](n2cnc(-c3ccc(F)cc3F)c2C#N)CC1` [Example 340] was tested, and the activity at 10 µM was 377%.
Work on `Cc1c(-c2ccc(F)cc2)ncn1[C@H]1CC[C@@H](NC(=O)C2CCC(F)(F)CC2)CC1` [Example 353] yielded an activity at 10 µM of 518%.
`O=C(NC1CCOCC1)[C@H]1CC[C@@H](n2cnc(-c3cc(F)ccc3F)c2Cl)CC1` [Example 368] showed an activity at 10 µM of 941%.
`O=C(NC1CCCCC1)N1CCC(n2cnc(-c3ccccn3)c2)CC1` [Example 132] showed an activity at 10 µM of 151%.
Work on `O=C(NC1CCCCC1)N1[C@@H]2CC[C@H]1C[C@H](n1cnc(-c3cccc(F)c3F)c1)C2` [Example 410] yielded an activity at 10 µM of 197%.
In the case of `O=C(NC1CCC(F)(F)CC1)N1[C@@H]2CC[C@H]1C[C@H](n1cnc(-c3cc(F)ccc3F)c1)C2` [Example 412], the activity at 10 µM is reported as 423%.
For `O=C(NC1CCC(F)(F)CC1)N1[C@@H]2CC[C@H]1C[C@H](n1cnc(-c3cc(F)ccc3F)c1Cl)C2` [Example 419], the activity at 10 µM was 913%.
Compound `O=C(N[C@H]1CC[C@@H](n2cnc(-c3ccc(F)cc3)c2Cl)CC1)C1CCC1` [Example 181] has an activity at 10 µM of 641%.
For `O=C(NC1CCCCC1)N1CCC(n2cnc(-c3cc(F)cc(F)c3)c2)CC1` [Example 34], the activity at 10 µM was 596%.
`O=C(C1CCOCC1)N1[C@@H]2CC[C@H]1C[C@@H](n1cnc(-c3ccc(F)cc3F)c1Cl)C2` [Example 436] showed an activity at 10 µM of 300%.
`CC(C)(F)C(=O)N[C@H]1CC[C@@H](n2cnc(-c3cccc(OC(F)(F)F)c3)c2)CC1` [Example 298] gave an activity at 10 µM of 166%.
`N#Cc1c(-c2ccc(F)cc2F)ncn1[C@@H]1C[C@H]2CC[C@@H](C1)N2C(=O)C1CCC(F)(F)CC1` [Example 462] was tested, and the activity at 10 µM was 384%.
With `O=C(N[C@H]1CC[C@@H](n2cnc(-c3ccc(F)cc3)c2)CC1)C1CCOCC1` [Example 282] the activity at 10 µM was 229%.
Work on `CC(C)(C)NC(=O)N1CCC(n2cnc(-c3ccccc3F)c2)CC1` [Example 67] yielded an activity at 10 µM of 317%.
Compound `O=C(c1ccc(F)cn1)N1CCC(n2cnc(-c3ccc(Cl)cc3)c2)CC1` [Example 141] has an activity at 10 µM of 253%.
Work on `O=C(C1CCC(F)(F)CC1)N1[C@@H]2CC[C@H]1C[C@@H](n1cnc(-c3cccc(F)c3F)c1Cl)C2` [Example 439] yielded an activity at 10 µM of 813%.
In the case of `CC(C)(F)C(=O)N[C@H]1CC[C@@H](n2cnc(-c3ccc(F)c(F)c3)c2C#N)CC1` [Example 342], the activity at 10 µM is reported as 369%.
For `CC(C)(F)C(=O)N[C@H]1CC[C@@H](n2cnc(-c3ccc(C(F)(F)F)cc3)c2C#N)CC1` [Example 201, N-(cis-4-{5-cyano-4-[4-(trifluoromethyl)phenyl]-1H-imidazol-1-yl}cyclohexyl)-2-fluoro-2-methylpropanamide], the activity at 10 µM was 224%.
In the case of `CC(C)(F)C(=O)N1CCC(n2cnc(-c3ccc(F)cc3)c2Cl)CC1` [Example 263], the activity at 10 µM is reported as 193%.
In the case of `O=C(C1CCC(F)(F)CC1)N1[C@@H]2CC[C@H]1C[C@@H](n1cnc(-c3ccc(F)cc3F)c1)C2` [Example 426], the activity at 10 µM is reported as 308%.
Compound `N#Cc1c(-c2cccc(F)c2F)ncn1[C@H]1C[C@H]2CC[C@@H](C1)N2C(=O)C1CCC(F)(F)CC1` [Example 445] has an activity at 10 µM of 272%.
In the case of `CC(C)(F)C(=O)N[C@H]1CC[C@@H](n2cnc(-c3cc(F)ccc3F)c2)CC1` [Example 301], the activity at 10 µM is reported as 828%.
`O=C(NC1CCC(F)(F)CC1)N1[C@@H]2CC[C@H]1C[C@@H](n1cnc(-c3cc(F)ccc3F)c1Cl)C2` [Example 396] showed an activity at 10 µM of 585%.
`COc1ccc(-c2ncn(C3CCN(C(=O)C4CCC(F)(F)CC4)CC3)c2C#N)cc1` [Example 265] showed an activity at 10 µM of 990%.
Compound `O=C(C1CCC(F)(F)CC1)N1CCCC(n2cnc(-c3ccc(F)cc3)c2)CC1` (centres unmarked) [Example 242] has an activity at 10 µM of 297%.
`O=C(C1CCOCC1)N1CCC(n2cnc(-c3ccc(Cl)cc3)c2Cl)CC1` [Example 264] gave an activity at 10 µM of 781%.
`CC(C)(F)C(=O)N[C@H]1CC[C@@H](n2cnc(-c3ccccc3F)c2C#N)CC1` [Example 337] gave an activity at 10 µM of 492%.
`O=C(N[C@H]1CC[C@@H](n2cnc(-c3ccc(F)cc3)c2)CC1)C(F)F` [Example 289] showed an activity at 10 µM of 125%.
Work on `N#Cc1c(-c2ccccc2F)ncn1C1CCN(C(=O)C2CC(F)(F)C2)CC1` [Example 270] yielded an activity at 10 µM of 569%.
`CC(C)(F)C(=O)N[C@H]1CC[C@@H](n2cnc(-c3cccc(OC(F)(F)F)c3)c2C#N)CC1` [Example 345] gave an activity at 10 µM of 153%.
Work on `O=C(C1CCC(F)(F)CC1)N1CCCC(n2cnc(-c3ccc(F)cc3)c2Cl)CC1` (centres unmarked) [Example 243] yielded an activity at 10 µM of 290%.
For `N#Cc1c(-c2ccc(F)cc2F)ncn1[C@H]1C[C@H]2CC[C@@H](C1)N2C(=O)NC1CCC(F)(F)CC1` [Example 402], the activity at 10 µM was 498%.
Work on `COC1CCC(NC(=O)N2CCC(n3cnc(-c4ccccc4)c3)CC2)CC1` (centres unmarked) [Example 40] yielded an activity at 10 µM of 129%.
`CC(C)(C)C(=O)N[C@H]1CC[C@@H](n2cnc(-c3ccc(Cl)cc3)c2)CC1` [Example 281] was tested, and the activity at 10 µM was 411%.
In the case of `CC(C)(F)C(=O)N1CCC(n2cnc(-c3ccc(F)cc3)c2)CC1` [Example 260], the activity at 10 µM is reported as 146%.
Work on `O=C(NC1CCCCC1)N1CCC(n2cnc(-c3c(F)cccc3F)c2)CC1` [Example 10] yielded an activity at 10 µM of 597%.
`CC(C)(F)C(=O)N[C@H]1CC[C@@H](n2cnc(-c3ccccc3F)c2)CC1` [Example 297] was tested, and the activity at 10 µM was 866%.
`N#Cc1c(-c2cccc(F)c2)ncn1C1CCN(C(=O)C2CC(F)(F)C2)CC1` [Example 269] was tested, and the activity at 10 µM was 452%.
For `O=C(C1CCC(F)(F)CC1)N1CCC(n2cnc(-c3ccc(C(F)(F)F)cc3)c2)CC1` [Example 138], the activity at 10 µM was 597%.
For `CC(C)(F)C(=O)N[C@H]1CC[C@@H](n2cnc(-c3cccc(OC(F)(F)F)c3)c2Cl)CC1` [Example 325], the activity at 10 µM was 210%.
`O=C(C1CCC(F)(F)CC1)N1[C@@H]2CC[C@H]1C[C@H](n1cnc(-c3cc(F)ccc3F)c1Cl)C2` [Example 459] showed an activity at 10 µM of 730%.
In the case of `CC(C)(F)C(=O)N[C@H]1CC[C@@H](n2cnc(-c3ccccc3OC(F)(F)F)c2C#N)CC1` [Example 344], the activity at 10 µM is reported as 220%.
`O=C(C1CCOCC1)N1CCC(n2cnc(-c3cccc(F)c3)c2Cl)CC1` [Example 150] gave an activity at 10 µM of 137%.
Work on `O=C(NC1CCOCC1)[C@H]1CC[C@@H](n2cnc(-c3ccccc3F)c2Cl)CC1` [Example 360] yielded an activity at 10 µM of 598%.
Compound `Cc1c(-c2ccc(F)cc2)ncn1C1CCN(C(=O)C2CCC(F)(F)CC2)CC1` [Example 275] has an activity at 10 µM of 912%.
`CC(C)(F)C(=O)N[C@H]1CC[C@@H](n2cnc(-c3ccc(F)c(OC(F)(F)F)c3)c2Cl)CC1` [Example 330] was tested, and the activity at 10 µM was 154%.
Compound `O=C(NC1CCC(F)(F)CC1)N1CCC(n2cnc(-c3ccnc(Cl)c3)c2)CC1` [Example 120] has an activity at 10 µM of 208%.
`O=C(N[C@H]1CC[C@@H](n2cnc(-c3ccc(Cl)cc3)c2)CC1)C(F)F` [Example 292] gave an activity at 10 µM of 101%.
Compound `COC1CCC(NC(=O)N2CCC(n3cnc(-c4ccc(C)s4)c3)CC2)CC1` (centres unmarked) [Example 128] has an activity at 10 µM of 188%.

Same assay, conditions: GH4-C1, 10 μM test compound; ratio of RLU (Max-Min) of test wells to control wells after ACh at EC20; GH4C1 cells expressing human α7 nAChR and aequorin; read-out: α7PAM (%) @10 μM
Work on `CC(C)(C)NC(=O)[C@H]1CC[C@H](n2cnc(-c3ccccc3)c2Cl)CC1` [Example 234] yielded an activity at 10 µM of 130%.

Same assay, conditions: comparison across Tables 18 to 25
With `N#Cc1c(-c2ccc(OC(F)(F)F)cc2)ncn1[C@H]1CC[C@@H](C(=O)NC2CCOCC2)CC1` [Example 380] the “PAM activity for α7 nAChR (in words)” value was “stronger PAM activity than others”.
